Data from ChEMBL document CHEMBL3046811, “Syntheses and in vitro biological screening of 1-aryl-10H-[1,2,4]triazolo[3,4:3,4][1,2,4]triazino[5,6-b]indoles” (Med Chem Res, 2013).

Columns and labels:
[1] = tested on: Respiratory syncytial virus; experiment: Antiviral activity against Respiratory syncytial virus infected African green monkey Vero 76 cells assessed as reduction in plaque number treated after viral infection measured after 5 days by plaque reduction assay; type: functional, organism-based; details: human respiratory syncytial virus, 120 h
Poliovirus 1 = experiment: Antiviral activity against Human poliovirus 1 strain Sabin infected African green monkey Vero 76 cells assessed as reduction in plaque number treated after viral infection measured after 2 days by plaque reduction assay; type: functional, organism-based; details: Enterovirus C, 48 h
[2] = tested on: Vesicular stomatitis virus; experiment: Antiviral activity against Vesicular stomatitis virus infected African green monkey Vero 76 cells assessed as reduction in plaque number treated after viral infection measured after 2 days by plaque reduction assay; type: functional, organism-based; details: 48 h
Coxsackievirus B2 = experiment: Antiviral activity against Human coxsackievirus B2 infected in African green monkey Vero 76 cells assessed as reduction in plaque number treated after viral infection measured after 3 days by plaque reduction assay; type: functional, organism-based; details: Enterovirus B, 72 h
Vaccinia virus = experiment: Antiviral activity against Vaccinia virus infected African green monkey Vero 76 cells assessed as reduction in plaque number treated after viral infection measured after 3 days by plaque reduction assay; type: functional, organism-based; details: Orthopoxvirus vaccinia, 72 h
[3] = tested on: Bovine viral diarrhea virus 1; experiment: Antiviral activity against Bovine viral diarrhea virus 1 infected bovine MDBK cells assessed as protection against virus-induced cytopathogenicity treated 1 hr after viral infection measured after 3-4 days by MTT method; type: functional, organism-based; details: Bovine viral diarrhea virus isolates and strains
[4] = tested on: Human immunodeficiency virus 1; experiment: Antiviral activity against Human immunodeficiency virus 1 infected human MT4 cells assessed as protection against virus-induced cytopathogenicity treated before viral infection measured after 4 days by MTT assay; type: functional, organism-based; details: Human immunodeficiency virus 1, MT4, 96 h
[5] = Cytotoxicity against Chlorocebus aethiops (African green monkey) Vero 76 cells assessed as inhibition of cell viability after 48 to 120 hr by MTT assay; type: cell-based; details: chlorocebus sabaeus
[6] = Cytotoxicity against Mesocricetus auratus (Syrian golden hamster) BHK21cells assessed as inhibition of cell viability after 48 to 120 hr by MTT assay; type: cell-based; details: BHK-21 cells
[7] = Cytotoxicity against Bos taurus (bovine) MDBK cells assessed as inhibition of cell viability after 48 to 120 hr by MTT assay; type: cell-based; details: cattle
[8] = Cytotoxicity against Homo sapiens (human) MT4 cells assessed as inhibition of cell vaibility after 96 hr by MTT assay; type: cell-based
Human alphaherpesvirus 1 = experiment: Antiviral activity against Human herpesvirus 1 infected African green monkey Vero 76 cells assessed as reduction in plaque number treated after viral infection measured after 3 days by plaque reduction assay; type: functional, organism-based; details: Human alphaherpesvirus 1, Vero, 72 h
[9] = tested on: Mammalian orthoreovirus 1; experiment: Antiviral activity against Mammalian orthoreovirus 1 infected Syrian hamster BHK-21 cells assessed as protection against virus-induced cytopathogenicity treated 1 hr after viral infection measured after 3-4 days by MTT method; type: functional, organism-based; details: Mammalian orthoreovirus 1, BHK-21
Yellow fever virus = experiment: Antiviral activity against Yellow fever virus infected Syrian hamster BHK-21 cells assessed as protection against virus-induced cytopathogenicity treated 1 hr after viral infection measured after 3-4 days by MTT method; type: functional, organism-based

SMILES | EC50 [1] [µM] | EC50 (Poliovirus 1) [µM] | EC50 [2] [µM] | EC50 (Coxsackievirus B2) [µM] | EC50 (Vaccinia virus) [µM] | EC50 [3] [µM] | EC50 [4] [µM] | CC50 [5] [µM] | CC50 [6] [µM] | CC50 [7] [µM] | CC50 at 96 h [8] [µM] | EC50 (Human alphaherpesvirus 1) [µM] | EC50 [9] [µM] | EC50 (Yellow fever virus) [µM]
c1ccc(Oc2cccc(-c3nnc4nnc5c6ccccc6[nH]c5n34)c2)cc1 | > 80 | > 80 | > 80 | > 80 | > 80 | > 100 | > 100 | 80 | 100 | > 100 | > 100 | > 80 | > 100 | > 100
Brc1cccc(-c2nnc3nnc4c5ccccc5[nH]c4n23)c1 | > 100 | > 100 | > 100 | > 100 | > 100 | > 100 | > 100 | > 100 | > 100 | > 100 | > 100 | > 100 | > 100 | > 100
Fc1ccc(-c2nnc3nnc4c5ccccc5[nH]c4n23)cc1 | > 100 | > 100 | > 100 | > 100 | > 100 | > 100 | > 100 | > 100 | > 100 | > 100 | > 100 | > 100 | > 100 | > 100
Clc1ccc(-c2nnc3nnc4c5ccccc5[nH]c4n23)cc1 | > 100 | > 100 | > 100 | > 100 | > 100 | > 100 | > 100 | > 100 | > 100 | > 100 | > 100 | > 100 | > 100 | > 100
Cc1cn([C@H]2C[C@H](N=[N+]=[N-])[C@@H](CO)O2)c(=O)[nH]c1=O [ZIDOVUDINE] |  |  |  |  |  |  | 0.01 |  |  |  |  |  |  | 
O=[N+]([O-])c1ccc(-c2nnc3nnc4c5ccccc5[nH]c4n23)cc1 | > 100 | > 100 | > 100 | > 100 | > 100 | > 100 | > 100 | > 100 | > 100 | > 100 | > 100 | > 100 | > 100 | > 100
COc1c(C)c2c(c(O)c1C/C=C(\C)CCC(=O)O)C(=O)OC2 [MYCOPHENOLIC ACID] |  |  |  |  | 1.8 |  |  |  |  |  |  |  |  | 
COc1ccccc1-c1nnc2nnc3c4ccccc4[nH]c3n12 | > 20 | > 20 | > 20 | > 20 | > 20 | > 17 | > 5 | 20 | 23 | 17 | 5 | > 20 | > 23 | > 23
c1ccc(-c2nnc3nnc4c5ccccc5[nH]c4n23)cc1 | > 100 | > 100 | > 100 | > 100 | > 100 | > 100 | > 100 | > 100 | > 100 | > 100 | > 100 | > 100 | > 100 | > 100
Oc1ccc(-c2nnc3nnc4c5ccccc5[nH]c4n23)cc1 | > 100 | > 100 | > 100 | > 100 | > 100 | > 100 | > 100 | > 100 | > 100 | > 100 | > 100 | > 100 | > 100 | > 100
Cc1ccc(-c2nnc3nnc4c5ccccc5[nH]c4n23)cc1 | > 100 | > 100 | > 100 | > 100 | > 100 | > 100 | > 100 | ≥ 100 | > 100 | > 100 | > 100 | > 100 | > 100 | > 100
COc1ccc(-c2nnc3nnc4c5ccccc5[nH]c4n23)cc1 | > 100 | > 100 | > 100 | > 100 | > 100 | > 100 | > 100 | > 100 | > 100 | > 100 | > 100 | > 100 | > 100 | > 100
Oc1cccc(-c2nnc3nnc4c5ccccc5[nH]c4n23)c1 | > 100 | > 100 | > 100 | > 100 | > 100 | > 100 | > 100 | > 100 | > 100 | > 100 | > 100 | > 100 | > 100 | > 100
C#C[C@@]1(O)[C@H](O)[C@@H](CO)O[C@H]1n1ccc(N)nc1=O [2'-ETHYNYL-D-CYTIDINE] |  | 18 |  | 23 |  |  |  |  |  |  |  |  |  | 
O=[N+]([O-])c1cccc(-c2nnc3nnc4c5ccccc5[nH]c4n23)c1 | > 100 | > 100 | > 100 | > 100 | > 100 | > 100 | > 100 | > 100 | > 100 | > 100 | > 100 | > 100 | > 100 | > 100
Oc1ccccc1-c1nnc2nnc3c4ccccc4[nH]c3n12 | > 70 | > 70 | > 70 | > 70 | > 70 | > 100 | > 100 | 70 | > 100 | > 100 | > 100 | > 70 | > 100 | > 100
CSc1ccc(-c2nnc3nnc4c5ccccc5[nH]c4n23)cc1 | > 90 | > 90 | > 90 | > 90 | > 90 | > 100 | > 100 | 90 | > 100 | > 100 | > 100 | > 90 | 45 | > 100
COc1ccc(-c2nnc3nnc4c5ccccc5[nH]c4n23)cc1OC | > 100 | > 100 | > 100 | > 100 | > 100 | > 100 | > 100 | > 100 | > 100 | > 100 | > 100 | > 100 | 55 | > 100
O=[N+]([O-])c1ccccc1-c1nnc2nnc3c4ccccc4[nH]c3n12 | > 100 | > 100 | > 100 | 100 | > 100 | > 100 | > 100 | > 100 | > 100 | > 100 | > 100 | > 100 | > 100 | > 100
Clc1ccccc1-c1nnc2nnc3c4ccccc4[nH]c3n12 | > 100 | > 100 | > 100 | > 100 | > 100 | > 100 | > 100 | > 100 | > 100 | > 100 | > 100 | > 100 | > 100 | > 100
C[C@@]1(O)[C@H](O)[C@@H](CO)O[C@H]1n1cnc2c(=O)[nH]c(N)nc21 [2'-B-METHYL-GUANOSINE] |  |  |  |  |  | 1.8 |  |  |  |  |  |  |  | 2.5
COc1ccc(OC)c(-c2nnc3nnc4c5ccccc5[nH]c4n23)c1 | > 15 | > 15 | > 15 | > 15 | > 15 | > 12 | > 4 | 15 | 30 | 12 | 4 | > 15 | > 30 | > 30
COc1cccc(-c2nnc3nnc4c5ccccc5[nH]c4n23)c1 | > 65 | > 65 | > 65 | > 65 | > 65 | > 64 | > 47 | 65 | > 100 | 64 | 47 | > 65 | > 100 | > 100
